Data reported in article PMC7523345 (Investigational new drugs, 2018).

Experiment: Phase I dose escalation study: safety, tolerability, DLT and MTD
Format: in vivo

In the case of `Cc1cccc2c1NC(=O)[C@@H](NC(=O)[C@H](CCC(F)(F)F)[C@H](CCC(F)(F)F)C(N)=O)N=C2c1cccc(F)c1` [BMS-986115], the “Abdominal pain (drug related AE, all grades)” value (Arm B BIW 2 mg (N = 2)) is reported as 1 (50) n (%), the “Blood creatinine increased (drug related AE, all grades)” value (Arm B BIW 2 mg (N = 2)) is reported as 0 n (%) and the “Colitis (drug related AE, Grade 3 and 4)” value (Arm B BIW 2 mg (N = 2)) is reported as 0 n (%). For the same molecule, the “Cough (drug related AE, Grade 3 and 4)” value (Arm B BIW 2 mg (N = 2)) was 0 n (%), the “Cough (drug related AE, all grades)” value (Arm B BIW 2 mg (N = 2)) was 0 n (%) and the “Decreased Appetite (drug related AE, Grade 3 and 4)” value (Arm B BIW 2 mg (N = 2)) was 0 n (%). The “Decreased Appetite (drug related AE, all grades)” value (Arm B BIW 2 mg (N = 2)) was 0 n (%), the “Dehydration (drug related AE, Grade 3 and 4)” value (Arm B BIW 2 mg (N = 2)) was 0 n (%) and the “Dehydration (drug related AE, all grades)” value (Arm B BIW 2 mg (N = 2)) was 0 n (%). The “Dermatitis acneiform (drug related AE, all grades)” value (Arm B BIW 2 mg (N = 2)) was 0 n (%), the “Diarrhoea (drug related AE, Grade 3 and 4)” value (Arm B BIW 2 mg (N = 2)) was 1 (50) n (%) and the “Diarrhoea (drug related AE, all grades)” value (Arm B BIW 2 mg (N = 2)) was 1 (50) n (%). The “Dry mouth (drug related AE, all grades)” value (Arm B BIW 2 mg (N = 2)) was 0 n (%), the “Dry skin (drug related AE, all grades)” value (Arm B BIW 2 mg (N = 2)) was 0 n (%) and the “Dysgeusia (drug related AE, all grades)” value (Arm B BIW 2 mg (N = 2)) was 0 n (%). For the same molecule, the “Dyspepsia (drug related AE, all grades)” value (Arm B BIW 2 mg (N = 2)) was 1 (50) n (%), the “Dysphonia (drug related AE, all grades)” value (Arm B BIW 2 mg (N = 2)) was 0 n (%) and the “Fatigue (drug related AE, Grade 3 and 4)” value (Arm B BIW 2 mg (N = 2)) was 0 n (%). The “Fatigue (drug related AE, all grades)” value (Arm B BIW 2 mg (N = 2)) was 1 (50) n (%), the “Flatulence (drug related AE, all grades)” value (Arm B BIW 2 mg (N = 2)) was 0 n (%) and the “Hypocalcaemia (drug related AE, Grade 3 and 4)” value (Arm B BIW 2 mg (N = 2)) was 0 n (%). For the same molecule, the “Hypocalcaemia (drug related AE, all grades)” value (Arm B BIW 2 mg (N = 2)) was 0 n (%), the “Hypokalaemia (drug related AE, Grade 3 and 4)” value (Arm B BIW 2 mg (N = 2)) was 0 n (%) and the “Hypokalaemia (drug related AE, all grades)” value (Arm B BIW 2 mg (N = 2)) was 0 n (%). For the same molecule, the “Hyponatraemia (drug related AE, Grade 3 and 4)” value (Arm B BIW 2 mg (N = 2)) was 0 n (%), the “Hyponatraemia (drug related AE, all grades)” value (Arm B BIW 2 mg (N = 2)) was 0 n (%) and the “Hypophosphataemia (drug related AE, Grade 3 and 4)” value (Arm B BIW 2 mg (N = 2)) was 1 (50) n (%). For the same molecule, the “Hypophosphataemia (drug related AE, all grades)” value (Arm B BIW 2 mg (N = 2)) was 1 (50) n (%), the “Ileus (drug related AE, Grade 3 and 4)” value (Arm B BIW 2 mg (N = 2)) was 0 n (%) and the “Increased upper airway secretion (drug related AE, all grades)” value (Arm B BIW 2 mg (N = 2)) was 0 n (%). The “Laryngeal pain (drug related AE, all grades)” value (Arm B BIW 2 mg (N = 2)) was 0 n (%), the “Leucocytosis (drug related AE, Grade 3 and 4)” value (Arm B BIW 2 mg (N = 2)) was 0 n (%) and the “Mouth ulceration (drug related AE, all grades)” value (Arm B BIW 2 mg (N = 2)) was 0 n (%). For the same molecule, the “Nausea (drug related AE, Grade 3 and 4)” value (Arm B BIW 2 mg (N = 2)) was 0 n (%), the “Nausea (drug related AE, all grades)” value (Arm B BIW 2 mg (N = 2)) was 1 (50) n (%) and the “Pruritus (drug related AE, Grade 3 and 4)” value (Arm B BIW 2 mg (N = 2)) was 0 n (%). The “Pruritus (drug related AE, all grades)” value (Arm B BIW 2 mg (N = 2)) was 0 n (%), the “Pulmonary embolism (drug related AE, Grade 3 and 4)” value (Arm B BIW 2 mg (N = 2)) was 0 n (%) and the “Rash (drug related AE, all grades)” value (Arm B BIW 2 mg (N = 2)) was 0 n (%). The “Rash maculopapular (drug related AE, all grades)” value (Arm B BIW 2 mg (N = 2)) was 0 n (%), the “Sinusitis (drug related AE, all grades)” value (Arm B BIW 2 mg (N = 2)) was 0 n (%) and the “Urticaria (drug related AE, Grade 3 and 4)” value (Arm B BIW 2 mg (N = 2)) was 0 n (%). For the same molecule, the “Vision blurred (drug related AE, all grades)” value (Arm B BIW 2 mg (N = 2)) was 0 n (%), the “Vomiting (drug related AE, Grade 3 and 4)” value (Arm B BIW 2 mg (N = 2)) was 0 n (%) and the “Vomiting (drug related AE, all grades)” value (Arm B BIW 2 mg (N = 2)) was 0 n (%). The “Weight decreased (drug related AE, all grades)” value (Arm B BIW 2 mg (N = 2)) was 0 n (%), the “No. of patients with DLTs” value (Arm B BIW 2 mg, 2 DLT evaluable patients) was 0 and the “Abdominal distension (drug related AE, all grades)” value (Arm B BIW 4 mg (N = 2)) was 1 (50) n (%). The “Abdominal pain (drug related AE, Grade 3 and 4)” value (Arm B BIW 4 mg (N = 2)) was 0 n (%), the “Abdominal pain (drug related AE, all grades)” value (Arm B BIW 4 mg (N = 2)) was 0 n (%) and the “Blood creatinine increased (drug related AE, all grades)” value (Arm B BIW 4 mg (N = 2)) was 0 n (%). The “Colitis (drug related AE, Grade 3 and 4)” value (Arm B BIW 4 mg (N = 2)) was 0 n (%), the “Cough (drug related AE, Grade 3 and 4)” value (Arm B BIW 4 mg (N = 2)) was 0 n (%) and the “Cough (drug related AE, all grades)” value (Arm B BIW 4 mg (N = 2)) was 0 n (%). For the same molecule, the “Decreased Appetite (drug related AE, Grade 3 and 4)” value (Arm B BIW 4 mg (N = 2)) was 0 n (%), the “Decreased Appetite (drug related AE, all grades)” value (Arm B BIW 4 mg (N = 2)) was 0 n (%) and the “Dehydration (drug related AE, Grade 3 and 4)” value (Arm B BIW 4 mg (N = 2)) was 0 n (%). The “Dehydration (drug related AE, all grades)” value (Arm B BIW 4 mg (N = 2)) was 0 n (%), the “Dermatitis acneiform (drug related AE, all grades)” value (Arm B BIW 4 mg (N = 2)) was 0 n (%) and the “Diarrhoea (drug related AE, Grade 3 and 4)” value (Arm B BIW 4 mg (N = 2)) was 0 n (%). For the same molecule, the “Diarrhoea (drug related AE, all grades)” value (Arm B BIW 4 mg (N = 2)) was 0 n (%), the “Dry mouth (drug related AE, all grades)” value (Arm B BIW 4 mg (N = 2)) was 0 n (%) and the “Dry skin (drug related AE, all grades)” value (Arm B BIW 4 mg (N = 2)) was 0 n (%). For the same molecule, the “Dysgeusia (drug related AE, all grades)” value (Arm B BIW 4 mg (N = 2)) was 1 (50) n (%), the “Dyspepsia (drug related AE, all grades)” value (Arm B BIW 4 mg (N = 2)) was 0 n (%) and the “Dysphonia (drug related AE, all grades)” value (Arm B BIW 4 mg (N = 2)) was 0 n (%). For the same molecule, the “Fatigue (drug related AE, Grade 3 and 4)” value (Arm B BIW 4 mg (N = 2)) was 0 n (%), the “Fatigue (drug related AE, all grades)” value (Arm B BIW 4 mg (N = 2)) was 1 (50) n (%) and the “Flatulence (drug related AE, all grades)” value (Arm B BIW 4 mg (N = 2)) was 1 (50) n (%). For the same molecule, the “Hypocalcaemia (drug related AE, Grade 3 and 4)” value (Arm B BIW 4 mg (N = 2)) was 0 n (%) and the “Hypocalcaemia (drug related AE, all grades)” value (Arm B BIW 4 mg (N = 2)) was 0 n (%).
